This is an account of results in ChEMBL document CHEMBL1781913, “Design and synthesis of 3-alkyl-2-aryl-1,3-thiazinan-4-one derivatives as selective cyclooxygenase (COX-2) inhibitors” (Bioorg Med Chem Lett, 2009).

What is called IC50 is the midpoint of a concentration-inhibition curve. Read a high IC50 as a need for much substance.

This test has as its target T1, Prostaglandin G/H synthase 1 (Ovis aries, UniProt P05979).
T1 sequence (P05979 whole entry): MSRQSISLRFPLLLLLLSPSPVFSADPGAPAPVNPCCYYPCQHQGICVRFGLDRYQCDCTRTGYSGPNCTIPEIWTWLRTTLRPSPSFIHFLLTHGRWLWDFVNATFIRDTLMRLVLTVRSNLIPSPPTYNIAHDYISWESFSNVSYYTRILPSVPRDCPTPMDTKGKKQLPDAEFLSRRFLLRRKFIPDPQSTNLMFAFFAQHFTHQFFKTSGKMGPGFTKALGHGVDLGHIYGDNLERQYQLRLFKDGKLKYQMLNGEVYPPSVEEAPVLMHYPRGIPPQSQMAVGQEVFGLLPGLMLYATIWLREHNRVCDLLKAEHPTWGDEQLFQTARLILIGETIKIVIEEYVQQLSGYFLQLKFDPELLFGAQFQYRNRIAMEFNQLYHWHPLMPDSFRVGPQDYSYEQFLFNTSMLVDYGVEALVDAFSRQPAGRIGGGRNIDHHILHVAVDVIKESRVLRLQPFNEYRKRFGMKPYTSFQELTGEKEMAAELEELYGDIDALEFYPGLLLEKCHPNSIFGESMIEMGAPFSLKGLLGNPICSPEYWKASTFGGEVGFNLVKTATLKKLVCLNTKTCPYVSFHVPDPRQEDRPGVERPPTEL
As to the kind of experiment: Inhibition of ovine COX1 by chemiluminescent assay.
`CS(=O)(=O)c1ccc(C2SCCC(=O)N2Cc2ccccc2)cc1` (stereo not given) registered an IC50 of 17.2 µM.

`CS(=O)(=O)c1ccc(C2SCCC(=O)N2CCc2ccccc2)cc1` (stereo not given) had an IC50 of 16 µM. `CCCN1C(=O)CCSC1c1ccc(S(C)(=O)=O)cc1` (stereo not given) registered an IC50 of 14.1 µM. Next, `CCCCN1C(=O)CCSC1c1ccc(S(C)(=O)=O)cc1` (stereo not given): 14.8 µM.

`CCCCCN1C(=O)CCSC1c1ccc(S(C)(=O)=O)cc1` (stereo not given) yielded an IC50 of 14.9 µM.
